Data from patent US7332601B2, “CCI-779 derivatives and methods of making same” (Wyeth, priority 2004, dated 2008).

Key:
orthotopic glioma model = details: nude mice; cited from earlier work
breast cancer lines = details: one of two breast cancer lines studied in vivo; cited from earlier work
[1] = test system: human tumor xenografts of diverse histological types; details: nude mice, cited from earlier work
human pancreatic tumors = details: several human pancreatic tumors in nude mice; cited from earlier work
CYP450 2E1 = CYP450 2E1 (Homo sapiens, UniProt P05181); assay: Generation of CCI-779 derivatives by CYP450 isozyme incubation; assay type: in vitro ADME
Sequence of CYP450 2E1 (P05181 whole entry): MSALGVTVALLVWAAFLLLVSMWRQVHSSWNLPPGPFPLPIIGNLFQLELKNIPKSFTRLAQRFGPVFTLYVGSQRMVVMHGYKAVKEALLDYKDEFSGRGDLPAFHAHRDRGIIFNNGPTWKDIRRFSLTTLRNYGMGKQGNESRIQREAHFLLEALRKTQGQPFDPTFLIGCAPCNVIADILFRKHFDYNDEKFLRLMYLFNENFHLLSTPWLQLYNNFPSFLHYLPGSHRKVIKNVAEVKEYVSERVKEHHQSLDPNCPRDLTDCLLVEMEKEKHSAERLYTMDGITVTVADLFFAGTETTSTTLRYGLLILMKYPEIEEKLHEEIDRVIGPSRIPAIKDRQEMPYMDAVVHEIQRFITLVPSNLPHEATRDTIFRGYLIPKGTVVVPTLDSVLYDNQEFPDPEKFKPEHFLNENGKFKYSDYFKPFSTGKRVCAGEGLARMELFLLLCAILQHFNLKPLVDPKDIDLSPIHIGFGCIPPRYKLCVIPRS

CYP450 2C9 = CYP450 2C9 (Homo sapiens, UniProt P11712); assay: as above; assay type: in vitro ADME
Sequence of CYP450 2C9 (P11712 whole entry): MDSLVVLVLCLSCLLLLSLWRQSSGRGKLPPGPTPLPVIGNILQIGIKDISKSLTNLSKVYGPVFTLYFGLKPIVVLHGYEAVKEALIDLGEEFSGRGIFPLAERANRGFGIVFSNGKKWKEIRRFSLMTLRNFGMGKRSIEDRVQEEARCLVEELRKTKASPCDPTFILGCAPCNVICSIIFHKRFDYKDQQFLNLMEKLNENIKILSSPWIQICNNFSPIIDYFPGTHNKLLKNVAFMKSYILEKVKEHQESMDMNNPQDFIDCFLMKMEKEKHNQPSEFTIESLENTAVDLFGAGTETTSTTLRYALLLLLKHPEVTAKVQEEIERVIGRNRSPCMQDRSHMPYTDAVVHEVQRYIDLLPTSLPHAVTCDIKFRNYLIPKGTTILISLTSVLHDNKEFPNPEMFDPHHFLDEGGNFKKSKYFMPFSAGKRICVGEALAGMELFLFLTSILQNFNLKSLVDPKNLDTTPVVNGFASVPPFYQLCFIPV

CYP450 2A6 = target: T1, CYP450 2A6 (Homo sapiens, UniProt P11509); assay: as above; assay type: in vitro ADME
T1 sequence (P11509 1-494): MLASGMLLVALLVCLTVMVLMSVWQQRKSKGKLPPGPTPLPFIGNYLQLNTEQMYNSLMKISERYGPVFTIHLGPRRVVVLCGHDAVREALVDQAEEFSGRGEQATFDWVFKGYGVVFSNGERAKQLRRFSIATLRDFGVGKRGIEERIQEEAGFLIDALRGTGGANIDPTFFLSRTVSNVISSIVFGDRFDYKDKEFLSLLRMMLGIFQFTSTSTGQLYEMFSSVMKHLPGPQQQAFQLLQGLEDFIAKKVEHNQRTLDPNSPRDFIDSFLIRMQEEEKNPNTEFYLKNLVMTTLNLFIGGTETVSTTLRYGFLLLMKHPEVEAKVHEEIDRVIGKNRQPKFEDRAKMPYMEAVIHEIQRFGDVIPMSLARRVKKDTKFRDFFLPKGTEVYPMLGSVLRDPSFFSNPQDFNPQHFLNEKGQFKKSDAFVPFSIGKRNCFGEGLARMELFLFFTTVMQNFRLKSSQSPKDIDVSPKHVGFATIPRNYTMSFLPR

CYP3A4 = target: T2, CYP3A4 (Homo sapiens, UniProt P08684); assay: as above; assay type: in vitro ADME
T2 construct: host or cells: E. coli (membrane preparation)
T2 sequence (P08684 whole entry): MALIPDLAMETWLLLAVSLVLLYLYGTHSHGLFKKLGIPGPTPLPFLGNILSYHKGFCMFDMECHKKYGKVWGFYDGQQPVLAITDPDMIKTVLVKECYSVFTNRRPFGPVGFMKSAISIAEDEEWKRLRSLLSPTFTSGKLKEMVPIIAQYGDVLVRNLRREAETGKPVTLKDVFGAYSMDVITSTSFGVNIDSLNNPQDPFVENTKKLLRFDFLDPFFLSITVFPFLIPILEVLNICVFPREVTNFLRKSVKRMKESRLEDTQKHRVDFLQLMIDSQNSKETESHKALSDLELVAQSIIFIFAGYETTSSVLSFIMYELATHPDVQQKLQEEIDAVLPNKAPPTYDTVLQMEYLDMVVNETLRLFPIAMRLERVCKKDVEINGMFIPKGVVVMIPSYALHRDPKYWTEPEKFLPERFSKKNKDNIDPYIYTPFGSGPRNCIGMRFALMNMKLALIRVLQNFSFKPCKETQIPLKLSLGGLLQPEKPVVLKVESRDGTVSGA
Protocol: The invention provides a method of generating specific derivatives of CCI-779 by incubating CCI-779 with membranes of recombinant E. coli cells expressing human cytochrome P450-3A4 isozymes.
In order to generate the specific hydroxylation derivatives of the invention, CCI-779 and CYP3A4 may be incubated in the presence of a reducing agent, such as NADH or NADPH. Suitably, CCI-779 and the enzyme can be present in a ratio of 300:1 to 500:1, and desirably about 330:1 CCI-779 to enzyme. In the examples below, these components are mixed to a final concentration of 0.1 mM CCI-779, 300 nM 3A4 enzyme, and 2 mM NADPH regenerate system. However, other concentrations can be readily used.
To a 5L reactor containing CCI-779 514 mg (0.5 mmol), MgCl2 (0.4 M×100 ml), NADPH generating system (NADP sodium salt: 75 mg×100 mL, D-glucose-6-phospate: 60 mg/mL×100 mL; glucose-6-phosphate dehydrogenase: 25 units/mL×100 mL), and E. coli-expressed CYP-3A4 membrane (1500 nmol) was added potassium phosphate buffer solution to 5L. The mixture solution was incubated at 37° C. under oxygen atmosphere (sparging O2 at 0.3 L/min) with agitation of 125 rpm for one hour. After one-hour reaction, the reaction solution was cooled down to 25° C. on an ice bath and extracted with an equal volume of ethyl acetate twice. […]

CYP450 2C19 = CYP450 2C19 (Homo sapiens, UniProt P33261); assay: as above; assay type: in vitro ADME
Sequence of CYP450 2C19 (P33261 whole entry): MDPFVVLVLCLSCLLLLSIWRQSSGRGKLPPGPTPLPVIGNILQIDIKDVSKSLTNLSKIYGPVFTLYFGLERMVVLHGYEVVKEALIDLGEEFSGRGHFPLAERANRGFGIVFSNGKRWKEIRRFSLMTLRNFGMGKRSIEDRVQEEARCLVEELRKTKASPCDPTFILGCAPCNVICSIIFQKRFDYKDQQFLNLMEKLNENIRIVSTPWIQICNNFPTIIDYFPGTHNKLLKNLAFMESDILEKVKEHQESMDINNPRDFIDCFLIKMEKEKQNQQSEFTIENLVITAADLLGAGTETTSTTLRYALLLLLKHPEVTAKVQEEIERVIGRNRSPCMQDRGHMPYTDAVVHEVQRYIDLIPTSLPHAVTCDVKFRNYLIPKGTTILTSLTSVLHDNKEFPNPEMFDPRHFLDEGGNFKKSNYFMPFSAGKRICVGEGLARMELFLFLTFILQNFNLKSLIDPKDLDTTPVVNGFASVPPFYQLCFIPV

CYP450 2C8 = target: T3, CYP450 2C8 (Homo sapiens, UniProt P10632); assay: as above; assay type: in vitro ADME
T3 sequence (P10632 1-490): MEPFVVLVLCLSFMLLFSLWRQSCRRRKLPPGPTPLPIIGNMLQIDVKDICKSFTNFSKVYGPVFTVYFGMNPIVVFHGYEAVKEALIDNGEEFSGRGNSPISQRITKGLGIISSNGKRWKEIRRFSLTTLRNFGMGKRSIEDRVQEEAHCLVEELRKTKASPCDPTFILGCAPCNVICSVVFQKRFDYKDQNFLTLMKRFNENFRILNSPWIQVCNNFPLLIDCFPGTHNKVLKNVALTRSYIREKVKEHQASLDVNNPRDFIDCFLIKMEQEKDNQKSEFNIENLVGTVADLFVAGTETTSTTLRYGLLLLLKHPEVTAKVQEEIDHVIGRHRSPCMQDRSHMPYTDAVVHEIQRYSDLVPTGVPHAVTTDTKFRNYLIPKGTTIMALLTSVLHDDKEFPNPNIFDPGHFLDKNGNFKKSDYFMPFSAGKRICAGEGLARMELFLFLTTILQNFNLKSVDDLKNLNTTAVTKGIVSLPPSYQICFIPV

[2] = test system: human glioblastoma cell line; details: human glioblastoma cell line in vitro; cited from earlier work
[3] = test system: histologically diverse tumor cells; details: cited from earlier work

- generation of CCI-779 derivatives by the enzyme (CYP450 2E1): not able to generate these derivatives
- generation of CCI-779 derivatives by the enzyme (CYP450 2C9): not able to generate these derivatives
- generation of CCI-779 derivatives by the enzyme (CYP450 2A6): not able to generate these derivatives
- generation of CCI-779 derivatives by the enzyme (CYP450 2C19): not able to generate these derivatives
- generation of CCI-779 derivatives by the enzyme (CYP450 2C8): not able to generate these derivatives
SMILES: CO[C@H]1CC2CC[C@@H](C)[C@@](O)(O2)C(=O)C(=O)N2CCCC[C@H]2C(=O)O[C@H]([C@H](C)C[C@@H]2CC[C@@H](OC(=O)C(C)(CO)CO)[C@H](OC)C2)CC(=O)[C@H](C)/C=C(\C)[C@@H](O)[C@@H](OC)C(=O)[C@H](C)C[C@H](C)/C=C/C=C/C=C/1C [CCI-779, Rapamycin 42-ester with 2,2-bis(hydroxymethyl)propionic acid]
- activity in orthotopic glioma model (orthotopic glioma model): active
- tumor growth (breast cancer lines): inhibited
- sensitivity of gliomas ([1]; gliomas): particularly sensitive
- activity against human tumor xenografts [1]: has activity
- tumor growth (human pancreatic tumors): inhibited
- generation of CCI-779 derivatives by the enzyme (CYP3A4): the only member of this family of enzymes to specifically generate CCI-779 derivatives
- growth factor (platelet-derived)-induced stimulation [2]: markedly suppressed
- sensitivity of tumor lines ([3]; CNS cancer, leukemia (T-cell), breast cancer, prostate cancer and melanoma lines): among the most sensitive
- inhibition of growth of tumor cells ([3]; in vitro, a number of histologically diverse tumor cells): inhibit the growth
- cell cycle effect ([3]; in vitro): arrested cells in the G1 phase
